No end group written: not given here.

One assay relates to AF9 protein. The assay can be described thus: FRAP of AF9-sfGFP in HEK 293T cells (chromatin binding of AF9). The format is cell-based, human. From the text: In one embodiment, fluorescence recovery after photobleaching (FRAP) may be used to analyze diffusion and binding of proteins in living cells. It has also been used to assess the cellular efficiency of bromodomain inhibitors in living cells.
In the FRAP experiments, the protein of interest is genetically tagged with a fluorescent protein (e.g., GFP) and expressed inside the cell. Then a portion of the fluorescent-tagged protein are photobleached by an intense laser pulse, and the fluorescence recovery of that photobleached region, which is caused by the migration of fluorescent-tagged proteins back into the bleached area, is monitored over time (FIG. 27a). A fluorescence recovery curve can be generated by plotting the fluorescence intensity with time, and the half time (t1/2), which is the time that the fluorescence intensity takes to recover to half, could also be calculated (FIG. 27b).
Since AF9 protein was reported to associate with chromatin by its YEATS domain, we reasoned that the V3 inhibitor would reduce the binding of AF9 to chromatin and increase its mobility. To test this hypothesis, I fused sfGFP to the C-terminal of AF9 protein and replaced the C-terminal sfGFP of V3-NLS and V3C-NLS to a red fluorescence mCherry protein to avoid fluorescence overlap in FRAP experiments. […]
HEK 293T cells were seeded in 3.5 cm confocal dish at a density of 4-6×10^5 cells per well in 2 mL complete growth medium and let them reach 60-80% confluency at the time of transfection. […] An argon laser (488 nm) was used for photobleaching and fluorescence imaging of sfGFP. The detector was set to detect fluorescence between 500 and 550 nm. […] Fluorescence recovery of sfGFP was monitored by a time series imaging.
The average fluorescence intensity was measured for three regions at each imaging time point, a bleached region (Fbl), a non-bleached reference region (Fref) to correct for the FRAP curve for photofading caused by imaging, the location of reference region should be as far apart as possible from the bleached region. […]

The target in another assay is T1, CobB (Escherichia coli, UniProt P75960).
T1 construct: endogenous in cells; host or cells: E. coli DH10B
T1 sequence (P75960 whole entry): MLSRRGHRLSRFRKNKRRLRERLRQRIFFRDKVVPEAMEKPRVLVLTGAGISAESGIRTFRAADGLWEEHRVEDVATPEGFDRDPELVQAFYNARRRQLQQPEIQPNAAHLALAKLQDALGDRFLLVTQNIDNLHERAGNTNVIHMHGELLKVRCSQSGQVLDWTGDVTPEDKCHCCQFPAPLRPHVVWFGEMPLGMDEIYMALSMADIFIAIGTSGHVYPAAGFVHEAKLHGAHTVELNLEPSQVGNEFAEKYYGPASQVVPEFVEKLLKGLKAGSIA
The assay is described as follows: ESI-MS of V3 expressed in E. coli with NAM (CobB deacylation). It counts as cell-based. The protocol:
Since nicotinamide (NAM) is a known inhibitor of the sirtuin family of enzymes, I expressed V3 in the presence of 20 mM NAM.
However, the V3 protein expression level was severely attenuated in the presence of 20 mM NAM (data not shown). Therefore, I attempted several lower NAM concentrations and assessed the purified V3 protein using ESI-MS. […] Thus, 10 mM NAM was added to the culture medium for the subsequent expression of V3 in E. coli.
DH10B cells harboring pEVOL-KfuRS and pBad-V3-2 plasmid were cultured in LB plus corresponding antibiotics. Protein expression was induced by adding 0.2% arabinose, 10 mM NAM, and 1 mM Kfu when O.D. 600 reached 0.4. After expression at 37° C. for 20 h, cells were harvested and washed with PBS. Protein purification was the same as sfGFP150Kfu except that 10 mM NAM was added to lysis buffer to prevent CobB deacylation. V3C was expressed and purified the same as V3.

The next assay addresses T2, AF9 YEATS domain (Homo sapiens, UniProt P42568).
T2 sequence (P42568 1-138 limits assumed): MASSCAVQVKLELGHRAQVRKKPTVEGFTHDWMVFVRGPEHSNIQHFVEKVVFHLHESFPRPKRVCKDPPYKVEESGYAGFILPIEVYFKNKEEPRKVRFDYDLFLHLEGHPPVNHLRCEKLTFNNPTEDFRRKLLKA
The assay is described as follows: Isothermal titration calorimetry (ITC) with AF9 YEATS domain. It counts as binding. Conditions: 25° C. The procedure: Next, I tested whether V3 protein could bind to the YEATS domains and act as a YEATS domain inhibitor. Isothermal titration calorimetry (ITC) was performed to determine the dissociation constant (Kd) between V3 and all four YEATS domain-containing proteins in humans (i.e. AF9, ENL, Gas41, and YEATS2).
ITC was first performed with V3 protein and the AF9 YEATS domain.
Experiments were conducted at 25° C. on a MicroCal PEAQ-ITC titration calorimeter (MicroCal). The buffer for the titration is (150 mM NaCl, 50 mM HEPES, 1 mM TCEP, pH 7.5). Proteins were dialyzed to the titration buffer for overnight before the experiment. The reaction cell contained 200 μL of 30 μM YEATS domain proteins, which was titrated with 300 μM V3 or V3C proteins (10-fold higher than the YEATS domain protein concentration used). The titration contained 20 injections, first 0.5 μL, and all subsequent injections of 2 μL. The binding isotherm was fit with MicroCal PEAQ-ITC analysis software, using a single set of independent sites to determine the thermodynamic dissociation constants and stoichiometry.

Another assay addresses AF9 YEATS domain (human) (UniProt P42568). The assay can be described thus: ITC, 25° C., 300 µM V3 titrated into 30 µM AF9 YEATS domain. (In general: ITC needs no label: the signal is the heat of the interaction.)
A further assay has as its target T3, V3-GAL4/AF9-VP64 complex (Homo sapiens, UniProt P42568).
T3 construct: expressed in transfected cells; host or cells: HEK 293T
T3 sequence (P42568 1-568): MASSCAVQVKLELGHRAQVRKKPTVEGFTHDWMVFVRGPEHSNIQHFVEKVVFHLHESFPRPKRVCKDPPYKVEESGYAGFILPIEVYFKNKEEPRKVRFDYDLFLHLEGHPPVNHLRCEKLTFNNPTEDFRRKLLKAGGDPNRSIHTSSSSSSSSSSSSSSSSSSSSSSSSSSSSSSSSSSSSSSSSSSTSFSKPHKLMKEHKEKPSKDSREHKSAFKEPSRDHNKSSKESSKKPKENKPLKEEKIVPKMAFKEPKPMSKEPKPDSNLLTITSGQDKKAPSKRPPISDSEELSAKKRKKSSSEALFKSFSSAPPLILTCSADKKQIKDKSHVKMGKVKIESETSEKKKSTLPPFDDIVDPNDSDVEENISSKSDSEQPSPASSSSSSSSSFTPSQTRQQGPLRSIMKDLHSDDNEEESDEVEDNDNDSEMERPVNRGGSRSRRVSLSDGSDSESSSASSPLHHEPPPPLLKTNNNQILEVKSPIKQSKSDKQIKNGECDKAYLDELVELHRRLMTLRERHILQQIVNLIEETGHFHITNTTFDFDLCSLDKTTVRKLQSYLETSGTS
The assay can be described thus: Luciferase-based two-hybrid assay (V3-GAL4 bait, AF9-VP64 prey). The format is cell-based. Conditions: V3-GAL4 bait with AF9-VP64 prey, normalized to V3C-GAL4. The protocol: FIG. 34A-34D Luciferase-based two hybrid assay. (A) Schematic of the Luciferase-based two hybrid assay. (B) Schematic showing V3-GAL4 and V3C-GAL4 fusion proteins. (C) Immunoblotting analysis the expression of V3-GAL4 and V3C-GAL4 in the presence or absence of 1 mM Kfu in HEK 293T cells. (D) Relative luciferase signal of V3-GAL4 or V3C-GAL4 ‘bait’ in the presence of AF9-VP64 ‘prey’ protein, and with the addition of different concentrations of iMLLT. The luminescence of all the samples was normalized to the V3C-GAL4 sample. Error bars represent SEM from three biological replicates.
To solve the problems in current cell-based methods, as well as develop a robust cell-based technology for the in vivo screening and validation of YEATS domain inhibitors. We sought out to take advantage of the well-developed luciferase-based two-hybrid assay. In the two-hybrid assay, the genetically encoded YEATS domain probe was fused with a GAL4 DNA binding domain and served as ‘bait’, while a transcription activation domain (VP64) was linked to AF9 protein and acted as ‘prey’ (FIG. 34a, b, c). […]

Turning to “V3-NLS (mCherry): V3-NLS with C-terminal sfGFP replaced by red fluorescence mCherry protein (KQTARKSTGGHHHHHHKRPAATKKAGQAKKKKL; also: C-terminal mCherry fusion (carrier not in chain))”, in the assay with AF9 protein (inhibitor co-expressed, 2.5 μM SAHA added to all groups, no inhibitor control 4.7±0.2 s), the “half recovery time (t1/2) of AF9-sfGFP” value worked out at 3.1 ± 0.2 s.
`NC(=O)c1cccnc1` [NAM, nicotinamide]: the “inhibition of the deacylation activity of CobB” value was “sufficient to inhibit” at CobB (10 mM NAM) and “completely inhibits” against CobB (20 mM NAM).
In the case of `O=C(CCCCCCC(=O)Nc1ccccc1)NO` [SAHA, suberoylanilide hydroxamic acid], the “half recovery time (t1/2) of AF9-sfGFP” value in the assay with AF9 protein (SAHA 2.5 μM for 18 hours before FRAP, untreated 2.5±0.1 seconds) was found to be 4.7 ± 0.2 s. The “final fluorescence (fluorescence at plateau), of the initial intensity” value in the assay on AF9 protein (SAHA-treated cells, untreated 90%) was 75%.
Consider “V3C: control inhibitor: H3 (4-13) with a normal lysine at the H3 K9 site fused to N-terminal of sfGFP (KQTARKSTGG; also: C-terminus fused to sfGFP)”, for which the “dissociation constant (Kd)” value with AF9 YEATS domain is on record as “no detectable binding”.
For orientation: Kd means the constant that tells how readily two partners part at equilibrium. A low value points to higher affinity. “V3 protein (genetically encoded YEATS domain inhibitor V3; histone H3 (4-13) with 2-furancarbonyl lysine at K9 fused to sfGFP and 6×His tag) (designed binder)” showed a Kd with AF9 YEATS domain (human) of 2.35 µM.

B1: V3-GAL4: genetically encoded YEATS domain probe fused with a GAL4 DNA binding domain, 'bait' (protein)
chain: KQTARKSTGGMKLLSSIEQACDICRLKKLKCSKEKPKCAKCLKNNWECRYSPKTKRSPLTRAHLTEVESRLERLEQLFLLIFPREDLDMILKMDSLQDIKALLTGLFVQDNVNKDAVTDRLASVETDMPLTLRQHRISATSSSEESSNKGQRQLTVS
As to B1, the “activation level of luciferase” value in the assay with V3-GAL4/AF9-VP64 complex is “around 20 folds”.

The values above are taken from US20230272370A1, “GENETICALLY ENCODED YEATS DOMAIN PROBE AND APPLICATIONS THEREOF” (THE UNIVERSITY OF HONG KONG, priority 2020, published 2023).
